According to patent US4508663A, “Process for preparing thiosulfenamide derivatives of N-phosphonomethylglycinonitriles” (Monsanto Company, priority 1983, dated 1985):

What was measured:
Test in all cases: post-emergence herbicidal activity, greenhouse
Format in all cases: in vivo
Lambsquarters = system: Lambsquarters
Text: (§1) A good grade of top soil is placed in aluminum pans having holes in the bottom and compacted to a depth of 0.95 to 1.27 cm. from the top of the pan. A predetermined number of seeds of each of several dicotyledonous and monocotyledonous annual plant species and/or vegetative propagules for the perennial plant species are placed on the soil and pressed into the soil surface. The seeds and/or vegetative propagules are covered with soil and leveled. The pans are then placed on a sand bench in the greenhouse and watered from below as needed. After the plants reach the desired age (two to three weeks), each pan except for the control pans is removed individually to a spraying chamber and sprayed by means of an atomizer operating at a positive air pressure of approximately 1.46 kg/cm^2 absolute. The atomizer contains 6 ml. of a solution or suspension of the chemical. In that 6 ml., is an amount of a cyclohexanone emulsifying agent mixture to give a spray solution or suspension which contains about 0.4% by weight of the emulsifier. The spray solution or suspension contains a sufficient amount of the candidate chemical in order to give application rates corresponding to those set forth in the tables. The spray solution is prepared by taking an aliquot of a 1.0% by weight stock solution or suspension of the candidate chemical in an organic solvent such as acetone or tetrahydrofuran or in water. The emulsifying agent employed is a mixture comprising 35 weight percent butylamine dodecylbenzene sulfonate and 65 weight percent of a tall oil ethylene oxide condensate having about 11 moles of ethylene oxide per mole of tall oil. The pans are returned to the greenhouse and watered as before and the injury to the plants as compared to the control is observed at approximately two and four weeks as indicated in the tables under WAT and the results recorded. In some instances, the two-week observations are omitted.
(§2) The post-emergence herbicidal activity index used in Table I is as follows: […]

Morningglory = system: Morningglory
Text: as §1, §2

Johnsongrass = settings: Table I
Text: as §1, §2

Quackgrass = settings: Table I
Text: as §1, §2

Downy Brome = system: Downy Brome
Text: as §1, §2

Yellow Nutsedge = settings: Table I
Text: as §1, §2

Cocklebur = system: Cocklebur
Text: as §1, §2

Velvetleaf = system: Velvetleaf
Text: as §1, §2

Canada Thistle = settings: Table I
Text: as §1, §2

Smartweed = system: Smartweed
Text: as §1, §2

Barnyardgrass = system: Barnyardgrass
Text: as §1, §2

Wild Buckwheat = settings: Table II, 4 WAT
Text: as §1, §2

Hemp Sesbania = settings: Table II, 4 WAT
Text: as §1, §2

Wheat = settings: Table II, 4 WAT
Text: as §1, §2

Soybean = settings: Table II, 4 WAT
Text: as §1, §2

Panicum Spp = settings: Table II, 4 WAT
Text: as §1, §2

Crabgrass = settings: Table II, 4 WAT
Text: as §1, §2

Sorghum = settings: Table II, 4 WAT
Text: as §1, §2

Rice = settings: Table II, 4 WAT
Text: as §1, §2

Sugar Beet = settings: Table II, 4 WAT
Text: as §1, §2

Measured: post-emergence herbicidal activity index

CCCCCCCCSSN(CC#N)CP(=O)(Oc1ccccc1)Oc1ccccc1 [II, Phosphonic acid, [[(cyanomethyl)(octyldithio)-amino]methyl]-, diphenyl ester]
2 (50-74% control): Morningglory; Table I, 4 WAT, 5.6 kg/h | Morningglory; Table I, 4 WAT, 11.2 kg/h | Johnsongrass; 4 WAT, 11.2 kg/h | Yellow Nutsedge; 4 WAT, 5.6 kg/h | Yellow Nutsedge; 4 WAT, 11.2 kg/h | Cocklebur; Table I, 4 WAT, 5.6 kg/h | Cocklebur; Table I, 4 WAT, 11.2 kg/h | Barnyardgrass; Table I, 4 WAT, 11.2 kg/h
1 (25-49% control): Quackgrass; 4 WAT, 11.2 kg/h | Downy Brome; Table I, 4 WAT, 5.6 kg/h | Velvetleaf; Table I, 4 WAT, 5.6 kg/h | Velvetleaf; Table I, 4 WAT, 11.2 kg/h | Canada Thistle; 4 WAT, 5.6 kg/h | Canada Thistle; 4 WAT, 11.2 kg/h | Smartweed; Table I, 4 WAT, 11.2 kg/h | Barnyardgrass; Table I, 4 WAT, 5.6 kg/h
3 (75-99% control): Lambsquarters; Table I, 4 WAT, 5.6 kg/h | Lambsquarters; Table I, 4 WAT, 11.2 kg/h | Johnsongrass; 4 WAT, 5.6 kg/h
0 (0-24% control): Quackgrass; 4 WAT, 5.6 kg/h | Downy Brome; Table I, 4 WAT, 11.2 kg/h | Smartweed; Table I, 4 WAT, 5.6 kg/h

COc1ccc(SSN(CC#N)CP(=O)(Oc2ccccc2)Oc2ccccc2)cc1 [III, Phosphonic acid, [[(cyanomethyl)[(4-methoxyphenyl)-dithio]amino]methyl]-, diphenyl ester]
0 (0-24% control): Quackgrass; 4 WAT, 5.6 kg/h | Downy Brome; Table I, 4 WAT, 5.6 kg/h | Smartweed; Table I, 4 WAT, 11.2 kg/h
3 (75-99% control): Lambsquarters; Table I, 4 WAT, 5.6 kg/h
2 (50-74% control): Morningglory; Table I, 4 WAT, 11.2 kg/h | Johnsongrass; 4 WAT, 5.6 kg/h | Johnsongrass; 4 WAT, 11.2 kg/h | Downy Brome; Table I, 4 WAT, 11.2 kg/h | Yellow Nutsedge; 4 WAT, 11.2 kg/h | Cocklebur; Table I, 4 WAT, 11.2 kg/h | Canada Thistle; 4 WAT, 5.6 kg/h | Canada Thistle; 4 WAT, 11.2 kg/h | Barnyardgrass; Table I, 4 WAT, 5.6 kg/h | Barnyardgrass; Table I, 4 WAT, 11.2 kg/h
4 (100% control): Lambsquarters; Table I, 4 WAT, 11.2 kg/h
1 (25-49% control): Morningglory; Table I, 4 WAT, 5.6 kg/h | Quackgrass; 4 WAT, 11.2 kg/h | Yellow Nutsedge; 4 WAT, 5.6 kg/h | Cocklebur; Table I, 4 WAT, 5.6 kg/h | Velvetleaf; Table I, 4 WAT, 5.6 kg/h | Velvetleaf; Table I, 4 WAT, 11.2 kg/h

N#CCN(CP(=O)(Oc1ccccc1)Oc1ccccc1)SSc1cccc(C(F)(F)F)c1 [IV, Phosphonic acid, [[(cyanomethyl)[[3-(trifluoromethyl)phenyl]dithio]amino]methyl]-, diphenyl ester]
2 (50-74% control): Lambsquarters; Table II, 4 WAT, 1.12 kg/h | Wild Buckwheat; 5.6 kg/h | Morningglory; Table I, 4 WAT, 11.2 kg/h | Morningglory; Table II, 4 WAT, 5.6 kg/h | Johnsongrass; 2 WAT, 5.6 kg/h | Quackgrass; 4 WAT, 5.6 kg/h | Downy Brome; Table I, 4 WAT, 11.2 kg/h | Panicum Spp; 5.6 kg/h | Yellow Nutsedge; 4 WAT, 5.6 kg/h | Yellow Nutsedge; 4 WAT, 11.2 kg/h | Cocklebur; Table I, 2 WAT, 11.2 kg/h | Cocklebur; Table I, 4 WAT, 5.6 kg/h | Cocklebur; Table I, 4 WAT, 11.2 kg/h | Canada Thistle; 4 WAT, 5.6 kg/h | Smartweed; Table II, 4 WAT, 5.6 kg/h | Barnyardgrass; Table I, 2 WAT, 5.6 kg/h | Barnyardgrass; Table I, 2 WAT, 11.2 kg/h | Barnyardgrass; Table I, 4 WAT, 5.6 kg/h | Barnyardgrass; Table I, 4 WAT, 11.2 kg/h | Sorghum; 1.12 kg/h | Rice; 5.6 kg/h
1 (25-49% control): Morningglory; Table I, 2 WAT, 5.6 kg/h | Morningglory; Table I, 2 WAT, 11.2 kg/h | Morningglory; Table II, 4 WAT, 1.12 kg/h | Johnsongrass; 2 WAT, 11.2 kg/h | Johnsongrass; 4 WAT, 11.2 kg/h | Hemp Sesbania; 5.6 kg/h | Quackgrass; 2 WAT, 5.6 kg/h | Downy Brome; Table I, 2 WAT, 5.6 kg/h | Downy Brome; Table I, 4 WAT, 5.6 kg/h | Downy Brome; Table II, 4 WAT, 5.6 kg/h | Wheat; 5.6 kg/h | Soybean; 1.12 kg/h | Soybean; 5.6 kg/h | Yellow Nutsedge; 2 WAT, 5.6 kg/h | Yellow Nutsedge; 2 WAT, 11.2 kg/h | Cocklebur; Table I, 2 WAT, 5.6 kg/h | Cocklebur; Table II, 4 WAT, 1.12 kg/h | Velvetleaf; Table I, 4 WAT, 5.6 kg/h | Velvetleaf; Table I, 4 WAT, 11.2 kg/h | Velvetleaf; Table II, 4 WAT, 5.6 kg/h | Canada Thistle; 2 WAT, 5.6 kg/h | Canada Thistle; 2 WAT, 11.2 kg/h | Canada Thistle; 4 WAT, 11.2 kg/h | Smartweed; Table I, 2 WAT, 11.2 kg/h | Smartweed; Table II, 4 WAT, 1.12 kg/h
4 (100% control): Lambsquarters; Table I, 4 WAT, 11.2 kg/h | Lambsquarters; Table II, 4 WAT, 5.6 kg/h | Smartweed; Table I, 4 WAT, 11.2 kg/h
0 (0-24% control): Wild Buckwheat; 1.12 kg/h | Hemp Sesbania; 1.12 kg/h | Quackgrass; 2 WAT, 11.2 kg/h | Quackgrass; 4 WAT, 11.2 kg/h | Downy Brome; Table I, 2 WAT, 11.2 kg/h | Downy Brome; Table II, 4 WAT, 1.12 kg/h | Wheat; 1.12 kg/h | Panicum Spp; 1.12 kg/h | Velvetleaf; Table I, 2 WAT, 5.6 kg/h | Velvetleaf; Table I, 2 WAT, 11.2 kg/h | Velvetleaf; Table II, 4 WAT, 1.12 kg/h | Smartweed; Table I, 2 WAT, 5.6 kg/h | Smartweed; Table I, 4 WAT, 5.6 kg/h | Barnyardgrass; Table II, 4 WAT, 1.12 kg/h | Rice; 1.12 kg/h | Sugar Beet; 1.12 kg/h | Sugar Beet; 5.6 kg/h
3 (75-99% control): Lambsquarters; Table I, 2 WAT, 5.6 kg/h | Lambsquarters; Table I, 2 WAT, 11.2 kg/h | Lambsquarters; Table I, 4 WAT, 5.6 kg/h | Morningglory; Table I, 4 WAT, 5.6 kg/h | Johnsongrass; 4 WAT, 5.6 kg/h | Cocklebur; Table II, 4 WAT, 5.6 kg/h | Crabgrass; 1.12 kg/h | Crabgrass; 5.6 kg/h | Barnyardgrass; Table II, 4 WAT, 5.6 kg/h | Sorghum; 5.6 kg/h
